Patent US5246928A, “Thiadiazinones for stimulating cardiac activity” (Smith Kline & French Laboratories Limited, priority 1991, dated 1993)

How the values were obtained:
[1] = test system: left ventricular dp/dt max; experiment: Cardiac Stimulant Activity - In vivo (Conscious Dogs): left ventricular dp/dt max; set-up: species or system dog
Protocol: Cardiac Stimulant Activity-In vivo (Conscious Dogs)
Oral administration caused positive inotropic responses at doses of 0.05 mg/kg and below.

[2] = test system: histamine-induced bronchoconstriction; experiment: Bronchodilatation in vivo: histamine-induced bronchoconstriction in anaesthetised guinea-pigs; set-up: species or system guinea-pig (Dunkin Hartley); conditions: guinea-pig, i.v.; in words
Protocol: Male guinea-pigs of the Dunkin Hartley strain (530 g±6 g) were anaesthetised with Sagatal (pentobarbital sodium) (90 mg/kg i.p.). Airway resistance was measured using a modification of the classical Konzett-Rossler technique (Versuchsanordnung zu Untersuchungen an der Bronchialmuskulatur. Naunyn-Schmiedebergs Arch. Exp. Path. Pharmak., 195: pp 71-74, (1940)). A dose of histamine which gave approximately 150% increase in airway resistance was selected for i.v. administration. Bolus doses of the compound of Example 1 were administered (i.v.) one minute before the histamine challenge.
The threshold dose for this compound was 1×10^-8 mol/kg.

[3] = test system: PDE (Peak III); experiment: Inhibition of PDE (Peak III) from cat heart; conditions: read-out: IC50 × 10^-6, 1 μM cyclic AMP, pH 7.5, 37°
Protocol: (§1) The enzyme was assayed by incubation at 37° for 4-30 min in 50 mM Tris, 5 mM MgCl2, pH 7.5 with [3-H] cyclic nucleotide (4×10^5 disintegrations min^-1) and [14-C] nucleotide 5' monophosphate (3×10^3 disintegrations min^-1). The assay was stopped by boiling, and the [3-H] […] The reaction mixture was diluted with 0.5 ml 100 mM HEPES (N-2-Hydroxyethylpiperazine-N'-2-ethanesulfonic acid), 100 mM NaCl, pH 8.5, and applied to the column. […] The recovery of product as judged by [14-C] recovery was approximately 80%. All assays were linear with time of incubation and concentration of enzyme over the range used in these experiments.

[4] = test system: left ventricular contractility; experiment: Cardiac Stimulant Activity - In vivo (Anaesthetised Cats): increase in left ventricular dp/dt max, i.v.; set-up: species or system cat; conditions: Felis catus, iv, read-out: ED50 (dose to increase left ventricular dp/dt max by 50%), pretreated with ganglion blocker and propranolol
[5] = test system: PDE (Peak I); experiment: Substrate kinetics of PDE (Peak I) from cat heart; assay type: biochemical; conditions: without calmodulin
Protocol: as §1

[6] = in words, in contrast to Example 1

Question: With `Nc1cc(-c2ccncc2)c[nH]c1=O` [Amrinone, reference compound] as the compound, how does the “activity in comparison with compound of Example 1” value [1, 6] read?
Answer: Its value is “less active”.

Question: And the “duration in comparison with compound of Example 1” value [1, 6]?
Answer: The value was “shorter duration”.

Question: `CC1CC(=O)NN=C1c1ccc(-n2ccc(=O)cc2)cc1` (stereo not shown) [Example 1, 5-Methyl-6-[4-(4-oxo-1,4-dihydropyridin-1-yl)phenyl]-4,5-dihydro-3(2H)-pyridazinone] was tested. Which “changes in blood pressure or heart rate” value ([1]; conscious dogs) did it give?
Answer: The value was “without changes in blood pressure or heart rate”.

Question: And the “duration of positive inotropic responses” value ([1]; conscious dogs, 3 hours = maximum duration of measurement)?
Answer: The value was “more than 3 hours”.

Question: And the “'force-rate' selectivity” value ([1]; conscious dogs, in words)?
Answer: The value was “particularly beneficial”.

Question: And the “effect on histamine-induced bronchoconstriction” value [2]?
Answer: Its value is “reduced the histamine-induced bronchoconstriction”.

Question: And the IC50 [3]?
Answer: Its IC50 is 410 nM.

Question: Which results are given for `O=C1CCC(c2ccc(-n3ccc(=O)cc3)cc2)=NN1` [Example 2, 6-[4-(4-Oxo-1,4-dihydropyridin-1-yl)phenyl]-4,5-dihydro-3(2H)-pyridazinone]?
Answer: ED50 [4]: 0.4 µmol/kg; IC50 [3]: 5090 nM

Question: With `O=c1ccn(-c2ccc(-c3ccc(=O)[nH]n3)cc2)cc1` [Example 3, 6-[4-(4-Oxo-1,4-dihydropyridin-1-yl)phenyl]-3(2H)-pyridazinone] as the compound, how does the ED50 [4] read?
Answer: The ED50 was 0.47 µmol/kg.

Question: What about the IC50 [3] of the same compound?
Answer: Its IC50 is 3990 nM.

Question: `O=C1CSC(c2ccc(-n3ccc(=O)cc3)cc2)=NN1` [Example 4, 2-[4-(4-Oxo-1,4-dihydropyridin-1-yl)phenyl]-4H,6H-1,3,4-thiadiazin-5-one] was tested. Which ED50 [4] did it give?
Answer: The ED50 was 0.06 µmol/kg.

Question: What about the IC50 [3] of the same compound?
Answer: Its IC50 is 1590 nM.

Question: With `O=C1COC(c2ccc(-n3ccc(=O)cc3)cc2)=NN1` [Example 5, 2-[4-(4-Oxo-1,4-dihydropyridin-1-yl)phenyl]-4H,6H-1,3,4-oxadiazin-5-one] as the compound, how does the ED50 [4] read?
Answer: Its ED50 is 0.22 µmol/kg.

Question: And the IC50 [3]?
Answer: The IC50 was 4330 nM.

Question: `O=C1NCC(c2ccc(-n3ccc(=O)cc3)cc2)=NN1` [Example 6, 6-[4-(4-Oxo-1,4-dihydropyridin-1-yl)phenyl]-4,5-dihydro-1,2,4-triazin-3(2H)-one] was tested. Which ED50 [4] did it give?
Answer: Its ED50 is 0.23 µmol/kg.

Question: And the IC50 [3]?
Answer: Its IC50 is 1750 nM.

Question: With `CC1NC(=O)NN=C1c1ccc(-n2ccc(=O)cc2)cc1` (stereo not shown) [Example 7, 6-[4-(4-Oxo-1,4-dihydropyridin-1-yl)phenyl]-5-methyl-4,5-dihydro-1,2,4-triazin-3(2H)-one] as the compound, how does the ED50 [4] read?
Answer: Its ED50 is 0.11 µmol/kg.

Question: And the IC50 [3]?
Answer: Its IC50 is 540 nM.

Question: For `CC12Cc3cc(-n4ccc(=O)cc4)ccc3C1=NNC(=O)S2` (stereo not shown) [Example 8, 7-(4-Oxo-1,4-dihydropyridin-1-yl)-9a-methyl-9,9a-dihydroindeno[1,2-e][1,3,4]thiadiazin-2(3H)-one], which ED50 [4] is on record?
Answer: The ED50 was 0.07 µmol/kg.

Question: What about the IC50 [3] of the same compound?
Answer: The IC50 was 1320 nM.

Question: Which ED50 [4] does the source give for `O=C1NN=C2c3ccc(-n4ccc(=O)cc4)cc3CC2S1` (stereo not shown) [Example 9, 7-(4-Oxo-1,4-dihydropyridin-1-yl)-9,9a-dihydroindeno[1,2-e][1,3,4]thiadiazin-2(3H)-one] here?
Answer: Its ED50 is 0.05 µmol/kg.

Question: What about the IC50 [3] of the same compound?
Answer: Its IC50 is 1250 nM.

Question: How did the ED50 [4] turn out when `CC1SC(=O)NN=C1c1ccc(-n2ccc(=O)cc2)cc1` (stereo not shown) [Example 10, 5-[4-(4-Oxo-1,4-dihydropyridin-1-yl)phenyl]-6-methyl-3H,6H-1,3,4-thiadiazin-2-one] was run?
Answer: The ED50 was 0.07 µmol/kg.

Question: And the IC50 [3]?
Answer: Its IC50 is 440 nM.

Question: `O=c1ccn(-c2ccc(-c3c[nH]c(=O)cn3)cc2)cc1` [Example 11, 5-[4-(4-Oxo-1,4-dihydropyridin-1-yl)phenyl]-2(1H)-pyrazinone] was tested. Which IC50 [3] did it give?
Answer: The IC50 was 2640 nM.

Question: `O=C1CC2CCc3cc(-n4ccc(=O)cc4)ccc3C2=NN1` (stereo not shown) [Example 13, 8-(4-Oxo-1,4-dihydropyridin-1-yl)-4,4a, 5,6-tetrahydrobenzo[h]cinnolin-3(2H)-one] was tested. Which ED50 [4] did it give?
Answer: Its ED50 is 0.78 µmol/kg.

Question: What about the IC50 [3] of the same compound?
Answer: The IC50 was 6600 nM.

Question: How did the ED50 [4] turn out when `O=c1ccn(-c2ccc(-c3n[nH]c(=O)s3)cc2)cc1` [Example 14, 5-[4-(4-Oxo-1,4-dihydropyridin-1-yl)phenyl]-1,3,4-thiadiazol-2(3H)-one] was run?
Answer: Its ED50 is 0.82 µmol/kg.

Question: What about the IC50 [3] of the same compound?
Answer: Its IC50 is 2260 nM.

Question: Which IC50 [3] does the source give for `C[C@@H]1CC(=O)NN=C1c1ccc(-n2ccc(=O)cc2)cc1` [Example 16, (R)-5-Methyl-6-[4-(4-oxo-1,4-dihydropyridin-1-yl)phenyl]-4,5-dihydro-3(2H)-pyridazinone] here?
Answer: Its IC50 is 230 nM.

Question: Which IC50 [3] does the source give for `C[C@H]1CC(=O)NN=C1c1ccc(-n2ccc(=O)cc2)cc1` [Example 17, (S)-5-Methyl-6-[4-(4-oxo-1,4-dihydropyridin-1-yl)phenyl]-4,5-dihydro-3(2H)-pyridazinone] here?
Answer: The IC50 was 2580 nM.

Question: Which Km [5] does the source give for `Nc1nc2c(ncn2[C@@H]2O[C@@H]3COP(=O)(O)O[C@H]3[C@H]2O)c(=O)[nH]1` [cyclic GMP] here?
Answer: The Km was 1.8 µM.

Question: And the “Relative Vmax” value [5]?
Answer: Its value is 1.1.
